Experimental data taken from patent US20180086817A1, “Preventing, Treating or Arresting Alzheimer's, Stroke, Cardiovascular and other Amyloid Related Diseases” (priority 2016, published 2018).

Columns and labels:
[1] = biological target: T1, L68Q cystatin C (Homo sapiens, UniProt P01034, L94Q); test: Preliminary trial of N-acetylcysteine in HCCAA patients expressing L68Q cystatin C, with biopsy; type: in vivo
T1 construct: confirmed by genetic screen to express L68Q cystatin C; from tissue; host or cells: HCCAA patients; biopsy (tissue not given)
T1 sequence (P01034 27-146 L94Q): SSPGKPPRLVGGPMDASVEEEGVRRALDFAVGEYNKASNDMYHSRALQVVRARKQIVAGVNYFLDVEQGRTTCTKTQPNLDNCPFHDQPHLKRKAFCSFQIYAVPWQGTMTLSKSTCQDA
Description: For an early test of effectiveness of glutathione supportive therapy in the treatment of HCCAA and similar disease involving plaque formation, human trials are planned using accepted and previously approved therapeutic interventions. Initial trials involve n-acetylcysteine based on its chemistry and historical acceptance in human therapies. Doses ranging from as low as 200 mg/day, but at least in the early trials, at higher levels to emphasize effect have been proposed with initial regulatory approvals in high risk HCCAA patients.
Three persons who had been identified through characteristic HCCAA symptoms confirmed by genetic screen to express L68Q cystatin C agreed to participate in a preliminary trial with a prototype drug to support antioxidant and other effects of GSH. N-acetylcysteine was used as a GSH-support/anti-cystatin-C-polymerization archetypical drug for conceptual proof and support of the hypotheses supporting this invention. […] One patient fully complied with the prescribed protocol. Two patients were only partially compliant. The fully compliant patient presented with a 50% reduction in plaques observed on biopsy.
Treatments are continuing, augmented by confirmatory/advisory biopsies. Biopsy intervals may be approximately weekly, but longer intervals are envisioned as sufficient to monitor effects and dosages and to encourage compliance in testing and treatment maintenance. For example, biopsy intervals may be weekly, biweekly, monthly, bimonthly, quarterly, semi-annual, annual, etc. Biopsy appointments may be used both for treatment/disease monitoring, but also to maintain patient attention and interaction. Medical advisory panels and insurance issues may also be considered in determining the frequency and type(s) of biopsies.

[2] = tested on: cellular glutathione; conditions: cited from earlier work

| SMILES | disease course ([1]; all three HCCAA patients (L68Q cystatin C), one fully and two partially compliant) | reduction in plaques observed on biopsy ([1]; fully compliant patient) [%] | aggregated protein previously observed ([1]; one of the partially compliant patients) | disease course ([1]; remaining non-compliant patient) | effect on glutathione over time ([2]; 25 mg/kg OTC in conjunction with 800 mg/day glutathione IM) | time by which effect wanes in plasma ([2]; dose of about 22-65 mg/kg, post administration) [h] | cellular glutathione ([2]; dose of about 22-65 mg/kg, shortly after administration) |
| --- | --- | --- | --- | --- | --- | --- | --- |
| CC(=O)N[C@@H](CS)C(=O)O [N-acetylcysteine] | disease arrest | 50 | significant reduction | disease arrest |  |  |  |
| O=C1N[C@H](C(=O)O)CS1 [OTC, L-2-oxothiazolidine-4-carboxolate] |  |  |  |  | continued effect | ≤ 8 | double |
